Data reported in US20100203634A1, “Inhibition of stem cell differentiation, enhancement of proliferation and selective induction of apoptosis by Wnt factors” (DeltaCell B.V., priority 2003, published 2010).
Entries after “also recorded” stand apart in the source; their conditions may differ.

Legend:
[1] = tested on: mesenchyme and epithelium of fetal lung explants; test: PCNA immunohistochemistry (proliferation) on lung explants; assay type: cell-based, mouse
Experimental: Detection of the PCNA epitopes was carried out by treating the sections with di-aminobenzidine (DAB) for 15 minutes.
The antibody against PCNA was purchased from Zymed Laboratories Inc. (cat nr. 18-0110). The secondary conjugate used was from Jackson Laboratories, Inc. (catalog nr. 115-056-062).

[2] = tested on: fetal lung explants (E12.5); test: Quantification of cell proliferation using phospho histon H3 immunohistochemistry; assay type: cell-based, mouse
Experimental: The number of cells undergoing mitosis was measured using immunohistochemical detection of phosphorylated histon H3, which is present only on condensed chromosomes during mitosis. Per condition, at least four different lung explants were treated and in total, 20 sections per condition were counted for phospho histon H3-positive cells by two different investigators. The primary antibody against phopho histon H3 (Ser10, clone 6G3) was purchased from Cell Signaling Technology and used according to the recommendations of the supplier.
To further determine the short-term effect of different Wnt3A concentrations upon the induction of proliferation, lung explants (E12.5) were cultured for one day with 0, 30, 125 and 500 ng/ml Wnt3a.
The lung explants were processed for immunohistochemical analysis and stained for Histon H3 phosphorylation, which can be used as a quantifiable cell proliferation marker as it is present in a fixed amount on condensed chromosomes only during active cell division (material and methods). […] However, most of the increase in proliferation could be accounted to the mesenchyme, where an increase in 40 to 60% of cells undergoing […] was observed.

[3] = tested on: mesenchyme and epithelium of fetal lung explants; test: BrdU incorporation immunostaining on lung explants; assay type: cell-based, mouse; conditions: four days
Experimental: The primary antibodies used for the immunohistochemical detection was for beta-catenin; anti beta-catenin IgG, mAb, clone 14 from BD-Transduction Laboratories, for tubulin-beta mAb clone TBN05 (Tub2.1) from Neomarkers, for BrdU; anti-Bromodeoxyuridine (BrdU), mAb clone ZBU30 from Zymed Laboratories Inc.
To further analyze the effect of Wnt3a upon apoptosis and proliferation, lung explants were cultured for four days in the presence of 0, 4, 20, 100, 250, 500, 750 and 1000 ng/ml. In order to identify whether after Wnt3A treatment cells are viable and active, proliferating BrdU was added to the culture medium, which is incorporated in newly synthesized DNA of active proliferating cells, two hours before the fixation of the lung explants. […] To better investigate this effect, histological sections were analyzed with the TUNEL assay, which detects fragmented DNA present in apoptotic cells (material and methods).
In order to identify whether the epithelial cells were still actively proliferating after four days of Wnt3a treatment, the histological sections were immunostained for incorporated BrdU (FIG. 6).

[4] = tested on: Wnt-signaling pathway in primary lung fibroblasts isolated from a E12.5 fetal lung; test: TopFlash/FopFlash reporter assay, primary fetal lung cells; assay type: cell-based, mouse; conditions: 0.4 to 500 ng/ml, 20 hours
Experimental: (§1) Primary mouse fibroblasts isolated from E12.5 lung explants, the human epithelial lung carcinoma cell line A549 cells (ATCC CCL-185), the human epithelial lung adenocarcinoma cell line Calu-3 (ATCC_HTB-55) and the normal human fetal lung fibroblast cell line HFL-1 cells (ATCC—153) were cultured in 96-well plates and transfected with the TopFlash and FopFlash reporter constructs using lipofectamine 2000 according to the manufacturer's instructions. As an internal control for transfection efficiency, a constitutive renilla luciferase reporter (Promega) was cotransfected. The cells were transfected with the above-mentioned reporter constructs and simultaneously treated with different concentrations of Wnt3A for 20 hours, after which the cells were lysed and luciferase expression was measured using a Berthold luminometer for two seconds (V. Korinek et al., Mol. Cell. Biol. 18:1248-1256, 1998). The Lipofectamine 2000 transfection reagent was purchased from Invitrogen Life Technologies. The wild-type beta-catenin/TCF reporter plasmid (TOPFLASH) and mutated reporter plasmid (FOPFLASH) were obtained from Upstate Biotechnology (NY, USA).
The dissociated lungs were co-transfected with the TopFlash reporter construct that is activated by nuclear beta-catenin transcription complexes. […]

[5] = tested on: Wnt-signaling pathway in human epithelial lung carcinoma cell line A549; test: TopFlash/FopFlash reporter assay, A549; assay type: cell-based; conditions: A549, 20 hours
Experimental: as §1, with “The Lipofectamine 2000 transfection reagent was purchased from Invitrogen Life Technologies. The wild-type beta-catenin/TCF reporter plasmid (TOPFLASH) and mutated reporter plasmid (FOPFLASH) were obtained from Upstate Biotechnology (NY, USA).” left out
(§2) In order to analyze if Wnt3A is able to activate the Wnt signal-transduction pathway in humans, we stimulated three different cell lines from human origin with Wnt3A and measured the response with the TopFlash/FopFlash reporter assay. The three human lung-derived cell lines analyzed were the lung epithelial carcinoma cell line A549 (FIG. 9B), the normal lung fibroblast line HFL-1 (FIG. 9C), and the epithelial adenocarcinoma cell line calu-3 (FIG. 9D).

[6] = tested on: Wnt-signaling pathway in human epithelial lung adenocarcinoma cell line Calu-3; test: TopFlash/FopFlash reporter assay, Calu-3; assay type: cell-based; conditions: calu-3, 20 hours
Experimental: as §1, with “The Lipofectamine 2000 transfection reagent was purchased from Invitrogen Life Technologies. The wild-type beta-catenin/TCF reporter plasmid (TOPFLASH) and mutated reporter plasmid (FOPFLASH) were obtained from Upstate Biotechnology (NY, USA).” left out
as §2

[7] = tested on: fetal lung explants (E12.5); test: Expression profiling of lung explants, Affymetrix MOE430AB microarray; assay type: cell-based, mouse
Experimental: To further investigate the effect of Wnt3A inhibition on lung differentiation, we analyzed the expression profiles of Wnt3A-treated lung explants with microarray analysis using the Affymetrix chip set MOE430AB, containing the complete mouse transcriptome. The lung explants, per condition, ten complete fetal lungs isolated from E12.5 embryos, were treated for four hours with 0 and 250 ng/ml Wnt3A (Wnt0/4 hr and Wnt250/4 hr, respectively), and for 24 hours with 0, 10, 50 and 250 ng/ml Wnt3A ([…], […], Wnt50/24 hr, Wnt250/24 hr, respectively). The 60 lung explants were isolated together from six pregnant Swiss mice and randomly distributed over the six different conditions.
After the indicated time period, total RNA was isolated, which was processed for the synthesis of a probe for hybridization onto the MOE-430AB chip sets. […] A rapid response was observed when the lungs were treated for four hours with 250 ng/ml Wnt3A.

[8] = 250 ng/ml, four hours, versus 0 ng/ml four hours
[9] = 24 hours, "the ng/ml wnt3a-treated group"

## Wnt3a
[1]; 500 ng/ml, two days
  PCNA staining in the bronchial epithelium: marked overall increase in the intensity and frequency of PCNA staining; also recorded: elevated PCNA staining
[1]; 1000 ng/ml, five days
  PCNA staining (proliferation) of epithelium and mesenchyme: the epithelium was still proliferating whereas most of the mesenchymal cells were inactive or dead; also recorded: strong reduction in proliferation of the mesenchyme versus the epithelium
[1]; 1000 ng/ml, two days
  PCNA staining: reduces the PCNA staining below the control situation
[1]; 2000 and 4000 ng/ml, two days
  PCNA staining: completely negative
[1]; lung explants
  concentration at which proliferation is absent / inhibited: above 2000 ng/ml
[2]; 30 ng/ml, after one day
  effect on proliferation: markedly increases proliferation
[2]; 30, 125 and 500 ng/ml, one day
  increase in overall proliferation (phospho histon H3-positive cells): > 20%
[2]; one day
  concentration at which the maximum stimulatory effect on proliferation was reached: ≤ 30 ng/mL
[3]; 500 ng/ml and lower
  BrdU-positive (active proliferating) cells: both the mesenchyme and epithelium contained many BrdU-positive
[3]; 750 ng/ml
  BrdU-positive (active proliferating) cells: intermediate effect
[3]; 1000 ng/ml
  BrdU-positive (active proliferating) cells: almost all BrdU-positive cells were present in the epithelium
[4]
  TopFlash versus FopFlash reporter response: clear Wnt3A dosage-dependent response
[5]
  TopFlash/FopFlash reporter response: respond to Wnt3A in a dosage-dependent manner; also recorded: strong induction of the Wnt-signaling pathway
[6]
  TopFlash/FopFlash reporter response: respond to Wnt3A in a dosage-dependent manner; also recorded: strong induction of the Wnt-signaling pathway
[7]; 10 ng/ml, 24 hours
  changes in gene expression: capable of inducing significant changes in gene expression
[7]; 50 ng/ml, 24 hours
  down-regulated genes: 92 genes
  up-regulated genes: 95 genes
[7]; 250 ng/ml four hours versus 24-hour groups
  genes whose four-hour profile is opposite from the 24-hour Wnt3A-treated profiles: circa 75%
[7]; 250 ng/ml, 24 hours
  down-regulated genes, more than two-fold: 152 genes
  up-regulated genes, more than two-fold: 195 genes
[7]; [8]
  down-regulated genes, more than two-fold: 1165 genes
  up-regulated genes, more than two-fold: 446 genes
[7]; 10, 50 and 250 ng/ml, 24 hours
  cluster analysis of expression profiles of 4500 genes: effect on differentiation: inhibits, at least partially, the differentiation of fetal lung tissue; also recorded: inhibits lung differentiation and development
[7]; [9]
  down-regulated genes, more than two-fold: 223 genes
  up-regulated genes, more than two-fold: 209 genes
